# Like-named read-outs stand apart in the source and are kept apart here.
# Tests used:
# [1] = Determination of cytotoxicity (MTT) in HepG2.2.15 cells; conditions: human
# Hepatitis B Virus (HBV) = assay: Inhibition of hepatitis B virus replication in HepG2.2.15 cells, quantitative PCR of culture medium; format: cell-based; conditions: for pharmaceutical activity as an antiviral agent (in words): comparison among the compounds of Table 2
# HepG2.2.15 cell [2] = assay: Determination of cytotoxicity (MTT) in HepG2.2.15 cells; conditions: read-out: CC50 (μM) in HepG2.2.15; MTT, 10th day of drug treatment
# HBV = assay: Pharmacological test on HBV transgenic mouse (serum HBV DNA by PCR); format: in vivo; conditions: for Result: number of mice showing pharmacological effect / number of total mice: effect = blood does not contain HBV DNA
# HepG2.2.15 cell [3] = test system: HepG2.2.15 cell
# [4] = Hepatitis B virus, 240 h, HepG2.2.15 cells, 10 days drug treatment, HBV DNA in medium by PCR
molecule,measurement,setting,value
"C[C@@H]1C[C@]1(Cn1cnc2c(Sc3ccc([N+](=O)[O-])cc3)nc(N)nc21)OCP(=O)(O)O (relative stereo) [Compound 44, [{(+)-cis-1-({2-amino-6-[(4-nitrophenyl)sulfanyl]-9H-purine-9-yl}methyl)-2-methylcyclopropyl}oxy]methylphosphonic acid]",CC50 at 10 days,[1],> 1000 µM
same,EC50,Hepatitis B Virus (HBV); [4],> 40 µM
"CC1CC1(Cn1cnc2c(O)nc(N)nc21)OCP(=O)(O)O (single isomer, unassigned) [Compound 36, {(−)-trans-1-[(2-amino-6-hydroxy-9H-purine-9-yl)methyl]-2-methylcyclopropyl}oxy)methylphosphonic acid]",CC50,HepG2.2.15 cell [2],> 1000 µM
same,EC50,"Hepatitis B Virus (HBV); HepG2.2.15 cells, 10 days drug treatment, HBV DNA in medium by PCR",> 10 µM
"CCC1CC1(Cn1cnc2c(O)nc(N)nc21)OCP(=O)(O)O (single isomer, unassigned) [Compound 37, ({(−)-trans-1-1(2-amino-6-hydroxy-9H-purine-9-yl)methyl]-2-ethylcyclopropyl}oxy)methylphosphonic acid]",CC50 at 10 days,[1],> 1000 µM
same,EC50,Hepatitis B Virus (HBV); [4],> 40 µM
"C[C@@H]1C[C@]1(Cn1cnc2c(O)nc(N)nc21)OCP(=O)(O)O (single isomer, unassigned) [Compound 38, ({(+)-cis-1-[(2-amino-6-hydroxy-9H-purine-9-yl)methyl]-2-methylcyclopropyl}oxy)methylphosphonic acid]",CC50 at 10 days,[1],> 1000 µM
same,EC50,Hepatitis B Virus (HBV); [4],> 10 µM
"C[C@H]1C[C@]1(Cn1cnc2c(O)nc(N)nc21)OCP(=O)(O)O [Compound 1, (((1S,2S)-1-[(2-amino-6-hydroxy-9H-purine-9-yl)methyl]-2-methylcyclopropyl}oxy)methylphosphonic acid]",CC50 at 10 days,[1],> 1000 µM
same,EC50,Hepatitis B Virus (HBV); [4],0.03 µM
same,pharmaceutical activity as an antiviral agent (in words),Hepatitis B Virus (HBV),most excellent pharmaceutical activity
"C[C@H]1C[C@]1(Cn1cnc2cnc(N)nc21)OCP(=O)(O)O [Compound 2, ({(1S,2S)-1-[(2-amino-9H-purine-9-yl)methyl]-2-methylcyclopropyl}oxy)methylphosphonic acid]",CC50 at 10 days,[1],> 1000 µM
same,EC50,Hepatitis B Virus (HBV); [4],1 µM
same,Result: number of mice showing pharmacological effect / number of total mice,"HBV; subcutaneous, 10 mg/kg/day",4/4
"CC1CC1(Cn1cnc2cnc(N)nc21)OCP(=O)(OCOC(=O)C(C)(C)C)OCOC(=O)C(C)(C)C [Compound 6, (1S,2S)-3-[({1-[(2-amino-9H-purine-9-yl)methyl]-2-methylcyclopropyl}oxy)methyl]-8,8-dimethyl-3,7-dioxo-2,4,6-trioxa-3λ^5-phosphanon-1-yl-pivalate]",Result: number of mice showing pharmacological effect / number of total mice,"HBV; oral, 1 mg/kg/day",5/5
"CC(C)OC(=O)OCOP(=O)(COC1(Cn2cnc3cnc(N)nc32)CC1C)OCOC(=O)OC(C)C [Compound 7, (1S,2S)-bis {[(isopropoxycarbonyl)oxy]methyl}({1-[(2-amino-9H-purine-9-yl)methyl]-2-methylcyclopropyl}oxy)methylphosphonate]",pharmacological effect (in words),"HBV; HBV transgenic mice, orally administrated at 1 mpk or less",very excellent pharmacological effect
same,Result: number of mice showing pharmacological effect / number of total mice,"HBV; oral, 1 mg/kg/day",5/5
"COc1ccc(Sc2nc(N)nc3c2ncn3CC2(OCP(=O)(OCOC(=O)C(C)(C)C)OCOC(=O)C(C)(C)C)CC2C)cc1 [Compound 8, (1S,2S)-3-{[(1-{[2-amino-6-(4-methoxyphenylthio)-9H-purine-9-yl]methyl}-2-methylcyclopropyl)oxy]methyl}-8,8-dimethyl-3,7-dioxo-2,4,6-trioxa-3λ^5-phospanon-1-yl-pivalate]",Result: number of mice showing pharmacological effect / number of total mice,"HBV; oral, 1 mg/kg/day",2/5
"CC[C@H]1C[C@]1(Cn1cnc2c(O)nc(N)nc21)OCP(=O)(O)O [Compound 12, ({(1S,2S)-1-[(2-amino-6-hydroxy-9H-purine-9-yl)methyl]-2-ethylcyclopropyl}oxy)methylphosphonic acid]",CC50 at 10 days,[1],> 1000 µM
same,EC50,Hepatitis B Virus (HBV); [4],0.03 µM
same,pharmaceutical activity as an antiviral agent (in words),Hepatitis B Virus (HBV),most excellent pharmaceutical activity
"CCC1CC1(Cn1cnc2cnc(N)nc21)OCP(=O)(O)O [Compound 13, ({(1S,^2S)-1-[(2-amino-9H-purine-9-yl)methyl]-2-ethylcyclopropyl}oxy)methylphosphonic acid]",CC50 at 10 days,[1],> 1000 µM
same,EC50,Hepatitis B Virus (HBV); [4],> 10 µM
"CC1CC1(Cn1cnc2c(N)ncnc21)OCP(=O)(O)O (stereo not drawn) [Compound 45, ({[(+)-cis-[1-(6-amino-9H-purine-9-yl)methyl]-2-methylcyclopropyl}oxylmethylphosphonic acid]",CC50 at 10 days,[1],> 1000 µM
same,EC50,Hepatitis B Virus (HBV); [4],> 40 µM
({(±)-trans-1-[(2-amino-6-hydroxy-9H-purine-9-yl)methyl]-2-propylcyclopropyl}oxy)methylphosphonic acid [Compound 40],EC50,Hepatitis B Virus (HBV),1.2 µM
same,CC50,HepG2.2.15 cell [3],> 1000 µM
({(±)-trans-1-[(2-amino-9H-purine-9-yl)methyl]-2-propylcyclopropyl}oxy)methylphosphonic acid [Compound 39],EC50,Hepatitis B Virus (HBV),> 40 µM
same,CC50,HepG2.2.15 cell [3],> 1000 µM
({(±)-trans-1-[(6-amino-9H-purine-9-yl)methyl]-2-propylcyclopropyl}oxy)methylphosphonic acid [Compound 41],EC50,Hepatitis B Virus (HBV),> 30 µM
same,CC50,HepG2.2.15 cell [3],> 1000 µM
[{(±)-trans-1-({2-amino-6-[(4-methoxyphenyl)sulfanyl]-9H-purine-9-yl}methyl)-2-ethylcyclopropyl }oxy]methylphosphonic acid [Compound 43],EC50,Hepatitis B Virus (HBV),> 0.2 µM
same,CC50,HepG2.2.15 cell [3],> 1000 µM

# From US20060111324A1, “(+)-Ttrans-isomers of (1-phosphonomethoxy-2-alkylcyclopropyl)methyl nucleoside derivatives, process for the preparation of stereoisomers thereof, and use of antiviral agents thereof” (LG Life Sciences, priority 2002, published 2006)
